Assay [1] deals with SW-480 colon adenocarcinoma cells. Kind of assay: Apoptosis, DNA fragmentation (Cell Death Detection ELISA plus). The class given is cell-based. Conditions: at 100 μM; SW-480 cells, 48 hrs incubation. As to the method:
Apoptosis was measured based on the amount of fragmented DNA contained in cell lysates. Briefly, SW-480 colon adenocarcinoma cells were plated in 96-well microtitre plates (“MTP”) at a density of 10K cells/well in 180 μl and were incubated for 24 hrs. Cells were then treated with 20 μl aliquots of appropriately diluted compound, and allowed to incubate for an additional 48 hrs.
After the incubation, samples were prepared according to the following steps. The MTP was centrifuged (15 min., 1000 rpm) and the supernatant was carefully removed by fast inversion of the MTP. […] Samples were analyzed immediately, because storage at 4° C. or −20° C. reduces the ELISA-signals.
Samples were then processed according to a DNA fragmentation assay protocol, and dose-response curves were generated based on optical density readings. Quantification of DNA was done by a commercially available photometric enzyme-immunoassay manufactured by Mannheim-Boehringer under the name “Cell Death Detection ELISA^plus”. The assay is based on a quantitative sandwich-enzyme-immunoassay-principle using mouse monoclonal antibodies directed against DNA and histones, respectively. […] After removal of unbound antibodies by a washing step, the amount of nucleosomes is quantified by the POD retained in the immunocomplex. POD is determined photometrically with ABTS® (2,2′-Azino-di[3-ethylbenzthiazolin-sulfonate) as substrate. […]
For orientation: In an ELISA, binding on a coated surface is turned into a signal by an enzyme label.

The target in assay [2] is T1, purified cyclooxygenase Type I (Ovis aries, UniProt P05979).
T1 construct: The COX was purified from ram seminal vesicles; from tissue; host or cells: ram seminal vesicles
T1 sequence (P05979 25-600): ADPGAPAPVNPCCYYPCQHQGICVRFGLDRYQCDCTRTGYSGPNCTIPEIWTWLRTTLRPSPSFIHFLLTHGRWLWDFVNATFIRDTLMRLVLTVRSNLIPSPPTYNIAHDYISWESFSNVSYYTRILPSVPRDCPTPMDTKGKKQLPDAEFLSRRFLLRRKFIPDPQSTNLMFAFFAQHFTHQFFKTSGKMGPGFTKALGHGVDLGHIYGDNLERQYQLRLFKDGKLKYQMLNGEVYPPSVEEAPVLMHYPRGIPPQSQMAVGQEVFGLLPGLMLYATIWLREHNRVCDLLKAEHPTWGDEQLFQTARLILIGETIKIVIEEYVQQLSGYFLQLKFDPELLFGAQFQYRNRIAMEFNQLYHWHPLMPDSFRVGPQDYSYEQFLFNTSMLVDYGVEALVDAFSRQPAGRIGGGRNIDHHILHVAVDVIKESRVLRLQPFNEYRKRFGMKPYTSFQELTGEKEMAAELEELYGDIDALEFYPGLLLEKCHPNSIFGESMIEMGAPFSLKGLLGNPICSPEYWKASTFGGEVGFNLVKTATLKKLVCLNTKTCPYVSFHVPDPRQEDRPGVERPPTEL
The assay is described as follows: Cyclooxygenase (COX) inhibition, purified COX. Format: biochemical. Particulars: 100 μM compound; COX purified from ram seminal vesicles; arachidonic acid 100 μM, 2.0 min at 37° C. As to the method: The assay was terminated by the addition of TCA, and COX activity was determined by absorbance at 530 nm.

In assay [3] the test system is human colon carcinoma cell line, HT-29. The assay is described as follows: Growth inhibition, Sulforhodamine B (SRB) protein binding assay. Particulars: HT-29 cells, six days continuous exposure, read-out: IC50 value (concentration of drug needed to inhibit tumor cell growth by 50%). Format: cell-based. As to the method: The compound of Example No. 1 was assayed for their growth inhibitory activity on the human colon carcinoma cell line, HT-29 obtained from ATCC (Rockville, Md.), to ascertain the degree of growth inhibition. Growth inhibition of this cell line is indicative of a benefit on precancerous lesions and neoplasms. The cell line and growth inhibition assay employed for such experiments are well characterized, and are used to evaluate the anti-neoplastic properties of substances. The assay is used by the United States National Cancer Institute in its screening program for new anti-cancer drugs.
Drug stock solutions were made in 100% DMSO and were then diluted with RPMI media for cell culture testing. All drug solutions were prepared fresh on the day of testing. The cultured cells were obtained at passage #99 and grown in RPMI media supplemented with 5% fetal calf serum, and 2 mM glutamine, 100 U/ml penicillin, […] streptomycin, and 0.25 μg/ml amphotericin. The cultures were maintained in a humidified atmosphere of 95% air and 5% CO2 at 37° C. The cultures were passaged at preconfluent densities using a solution of 0.05% trypsin and 0.53 mM EDTA. […]
Tumor cell growth inhibition was assessed using the Sulforhodamine B (SRB) protein binding assay. […] The dye was then solubilized, and the optical density of the resulting solution was determined on a 96-well plate reader. […]

These results are taken from patent US20020028936A1, “1,3-disubstituted indolin-2-ones for neoplasia” (priority 1999, published 2002).

With `O=C1C(=Cc2ccccc2)c2ccccc2N1Cc1ccc(F)cc1` [Example 1, (Z, E) 1-(4-Fluorobenzyl)-3-Benzylidene-Indolin-2-One], the “fold stimulation (apoptosis, fragmented DNA)” value in assay [1] was determined as 6 fold. For the same compound, the “COX I % Inhibition (100 μM)” value in assay [2] is recorded as under 25%. Moreover, in assay [3], the IC50 is about 7.3 µM.
